How the values were obtained:
PLK4 (h) = PLK4 (h) (Homo sapiens, UniProt O00444); test: PLK-4 human kinase assay (SPA); type: biochemical; settings: for IC50: read-out: PLK4 pIC50 (converted)
Summary of the method: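 Radiometric readout: 33P-labelled peptide captured on streptavidin SPA beads after EDTA stop, imaged by Leadseeker. Reaction ran 60 min at room temperature in Hepes pH 8.0 buffer. It contained 1 μM ATP with 2 nM [γ-33P]ATP, 10 μM biotinylated peptide and PLK4 (h) at 19 μg/ml.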

AuroraB (h) = AuroraB (h) (Homo sapiens, UniProt Q96GD4); test: Aurora-B human kinase assay (SPA); type: biochemical; settings: for IC50: read-out: AuroraB pIC50 (converted)
Summary of the method: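 33P-phosphorylated biotin-substrate captured on streptavidin PVT SPA beads after EDTA-containing stop and imaged on Leadseeker. Reaction: 60 min at room temperature, Hepes pH 7.5 with Mg2+/Mn2+. Conditions: 0.5 μM ATP plus 2.2 nM [γ-33P]ATP, 3 μM substrate, 0.5 μg/ml human AuroraB.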

GSK3β (h) = GSK3β (h) (Homo sapiens, UniProt P49841); test: GSK-3β human kinase assay (SPA); type: biochemical; settings: for IC50: read-out: GSK3B pIC50 (converted)
Summary of the method: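 Radiometric SPA read-out: after EDTA stop, biotinylated 33P-labelled peptide bound streptavidin PVT beads and was imaged on Leadseeker. Reaction: 60 min, room temperature, GSK3β (h) at 1 μg/ml, 1 μM substrate peptide, 1 μM ATP with 2 nM [γ-33P]ATP, Tris pH 7.4/MgCl2/DTT buffer.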

CDK1/CyclinB (h) = CDK1/CyclinB (h) (Homo sapiens, UniProt P06493); test: CDK1/CyclinB human kinase assay (FRET); type: biochemical; settings: for IC50: read-out: CDK1 pIC50 (converted)
Summary of the method: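 Kinase activity was read as the 460/538 nm emission ratio after protease cleavage of unphosphorylated peptide (60 min development). The reaction ran 60 min at room temperature with 10 μM ATP, 2 μM Ser/Thr peptide 12 and 0.2 μg/ml enzyme in Hepes pH 7.5 buffer with MgCl2, EGTA, Brij-35.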

A2780 = test: Cellular proliferation assay (Alamar blue), A2780; type: cell-based; settings: A2780 cells, 72 hours with compound, 10% FCS; for IC50: Homo sapiens, A2780, 72 h, read-out: pIC50 A2780 (converted)
Protocol: (§1) […] functional properties of these compounds was tested in cellular proliferation assays on a panel of different cell lines in the presence of 10% FCS serum (37° C. and 5% (v/v) CO2). In a first step these cells were seeded and incubated for 24 hours in the absence of compound. In the second step the cells were incubated for 72 hours with the compounds to be tested for 72 hours. The viable cell number was finally assessed in a standard Alamar blue cell viability assay.
(§2) The viable cell number was assessed by incubation for either 4 h (HCT-116, H1299, H460) 6 h (SKOV3, HT29, U87-MG, Colo205) or 24 h (A2780, PC3, MDA-MB-231, A549, MCF-7) with Alamar blue (Resazurin 9 μg/ml, K-Ferrocyanide 90 μM K-Ferricyanide 90 μM) and the converted fluorescent product was quantified on a fluorescent plate readed (544 nm/590 nm). Effect of the compounds is calculated as of on control cells.

HCT-116 = test: Cellular proliferation assay (Alamar blue), HCT-116; type: cell-based; settings: HCT-116 cells, 72 hours with compound, 10% FCS; for IC50: Homo sapiens, HCT-116, 72 h, read-out: pIC50 HCT-116 (converted)
Protocol: as §1, §2

H1299 = test: Cellular proliferation assay (Alamar blue), H1299; type: cell-based; settings: H1299 cells, 72 hours with compound, 10% FCS; for IC50: Homo sapiens, NCI-H1299, 72 h, read-out: pIC50 H1299 (converted)
Protocol: as §1, §2

U87MG = test: Cellular proliferation assay (Alamar blue), U87MG; type: cell-based; settings: U87MG cells, 72 hours with compound, 10% FCS; for IC50: Homo sapiens, U-87 MG, 72 h, read-out: pIC50 U87MG (converted)
Protocol: as §1, §2

PC-3 = test: Cellular proliferation assay (Alamar blue), PC-3; type: cell-based; settings: PC-3 cells, 72 hours with compound, 10% FCS; for IC50: Homo sapiens, PC-3, 72 h, read-out: pIC50 PC-3 (converted)
Protocol: as §1, §2

MDA/MB231 = test: Cellular proliferation assay (Alamar blue), MDA/MB231; type: cell-based; settings: MDA/MB231 cells, 72 hours with compound, 10% FCS; for IC50: Homo sapiens, MDA-MB-231, 72 h, read-out: pIC50 MDA/MB231 (converted)
Protocol: as §1, §2

Sequence of PLK4 (h) (O00444 whole entry): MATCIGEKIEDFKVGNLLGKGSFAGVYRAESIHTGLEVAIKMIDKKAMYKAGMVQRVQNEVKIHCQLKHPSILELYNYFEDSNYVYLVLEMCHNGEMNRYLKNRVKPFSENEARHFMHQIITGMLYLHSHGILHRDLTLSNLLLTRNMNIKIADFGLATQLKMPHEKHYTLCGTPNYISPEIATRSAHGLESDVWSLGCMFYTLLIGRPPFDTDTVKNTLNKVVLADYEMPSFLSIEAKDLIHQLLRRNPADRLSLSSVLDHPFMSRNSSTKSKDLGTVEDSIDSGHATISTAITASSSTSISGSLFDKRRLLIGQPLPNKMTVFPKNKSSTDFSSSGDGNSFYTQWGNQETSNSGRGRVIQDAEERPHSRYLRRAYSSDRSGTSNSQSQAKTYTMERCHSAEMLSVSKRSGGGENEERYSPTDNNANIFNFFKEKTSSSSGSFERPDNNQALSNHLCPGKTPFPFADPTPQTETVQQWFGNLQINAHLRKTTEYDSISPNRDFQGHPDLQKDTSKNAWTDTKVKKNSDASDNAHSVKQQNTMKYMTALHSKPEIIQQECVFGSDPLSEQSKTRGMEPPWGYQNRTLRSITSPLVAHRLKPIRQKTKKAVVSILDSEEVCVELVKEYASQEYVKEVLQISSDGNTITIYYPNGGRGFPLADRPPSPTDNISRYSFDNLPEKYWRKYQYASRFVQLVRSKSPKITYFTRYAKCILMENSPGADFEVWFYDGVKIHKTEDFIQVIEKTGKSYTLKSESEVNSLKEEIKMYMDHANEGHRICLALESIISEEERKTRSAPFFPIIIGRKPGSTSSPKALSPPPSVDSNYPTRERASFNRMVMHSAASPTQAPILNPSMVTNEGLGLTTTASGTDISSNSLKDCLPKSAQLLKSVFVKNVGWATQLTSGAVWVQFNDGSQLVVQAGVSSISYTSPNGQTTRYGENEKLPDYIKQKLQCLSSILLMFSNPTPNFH
Sequence of AuroraB (h) (Q96GD4 whole entry): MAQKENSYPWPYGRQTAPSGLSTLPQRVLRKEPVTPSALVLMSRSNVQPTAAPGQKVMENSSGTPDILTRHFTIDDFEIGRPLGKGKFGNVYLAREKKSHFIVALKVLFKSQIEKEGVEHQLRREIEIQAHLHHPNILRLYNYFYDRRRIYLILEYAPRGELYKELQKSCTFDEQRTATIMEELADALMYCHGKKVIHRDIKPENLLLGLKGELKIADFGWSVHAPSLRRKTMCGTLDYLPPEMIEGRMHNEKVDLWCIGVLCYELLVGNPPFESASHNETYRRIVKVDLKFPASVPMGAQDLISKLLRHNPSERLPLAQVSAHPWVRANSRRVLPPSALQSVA
Sequence of CDK1/CyclinB (h) (P06493 whole entry): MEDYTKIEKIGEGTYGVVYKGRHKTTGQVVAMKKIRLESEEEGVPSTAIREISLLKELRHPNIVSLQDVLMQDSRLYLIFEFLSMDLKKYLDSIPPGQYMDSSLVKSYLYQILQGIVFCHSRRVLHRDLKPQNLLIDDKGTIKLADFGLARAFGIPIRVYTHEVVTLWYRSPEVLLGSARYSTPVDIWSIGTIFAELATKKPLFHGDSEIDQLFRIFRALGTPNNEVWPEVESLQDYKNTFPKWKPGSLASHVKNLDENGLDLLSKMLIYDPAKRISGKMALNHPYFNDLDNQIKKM
Sequence of CDK1/CyclinB (h) (P14635 whole entry partner): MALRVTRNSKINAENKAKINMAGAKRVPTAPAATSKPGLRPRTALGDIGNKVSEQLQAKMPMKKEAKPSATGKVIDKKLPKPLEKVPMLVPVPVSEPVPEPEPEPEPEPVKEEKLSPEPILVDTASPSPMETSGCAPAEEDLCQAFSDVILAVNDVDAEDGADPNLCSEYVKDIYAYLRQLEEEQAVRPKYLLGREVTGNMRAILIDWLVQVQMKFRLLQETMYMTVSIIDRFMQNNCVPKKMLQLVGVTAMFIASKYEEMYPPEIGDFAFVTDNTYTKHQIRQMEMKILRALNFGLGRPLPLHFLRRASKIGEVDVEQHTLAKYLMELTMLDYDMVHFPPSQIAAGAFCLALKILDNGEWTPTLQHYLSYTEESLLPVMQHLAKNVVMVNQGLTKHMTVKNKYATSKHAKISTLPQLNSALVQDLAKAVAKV
Sequence of GSK3β (h) (P49841 whole entry): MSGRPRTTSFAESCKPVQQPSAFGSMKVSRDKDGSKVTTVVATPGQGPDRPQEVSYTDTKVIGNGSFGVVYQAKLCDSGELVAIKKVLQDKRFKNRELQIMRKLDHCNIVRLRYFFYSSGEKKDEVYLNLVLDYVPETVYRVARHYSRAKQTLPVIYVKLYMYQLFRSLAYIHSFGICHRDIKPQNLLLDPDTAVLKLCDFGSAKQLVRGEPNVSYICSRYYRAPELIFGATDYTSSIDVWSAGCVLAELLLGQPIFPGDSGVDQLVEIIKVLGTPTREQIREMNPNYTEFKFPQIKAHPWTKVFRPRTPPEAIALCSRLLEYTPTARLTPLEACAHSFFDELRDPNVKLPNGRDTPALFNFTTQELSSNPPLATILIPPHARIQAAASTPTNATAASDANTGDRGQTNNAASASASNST

| Structure (SMILES) | PLK4 pIC50 (PLK4 (h)) | AuroraB pIC50 (AuroraB (h)) | GSK3B pIC50 (GSK3β (h)) | CDK1 pIC50 (CDK1/CyclinB (h)) | pIC50 A2780 (A2780) | pIC50 HCT-116 (HCT-116) | pIC50 H1299 (H1299) | pIC50 U87MG (U87MG) | pIC50 PC-3 (PC-3) | pIC50 MDA/MB231 (MDA/MB231) | IC50 (PLK4 (h)) [nM] | IC50 (A2780) [nM] | IC50 (MDA/MB231) [nM] | IC50 (U87MG) [nM] | IC50 (PC-3) [nM] | IC50 (HCT-116) [nM] | IC50 (AuroraB (h)) [nM] | IC50 (GSK3β (h)) [nM] | IC50 (CDK1/CyclinB (h)) [nM] | IC50 (H1299) [nM] |
| --- | --- | --- | --- | --- | --- | --- | --- | --- | --- | --- | --- | --- | --- | --- | --- | --- | --- | --- | --- | --- |
| CN1CCN(c2ccc3cc2OCCCC(=O)N(C)CCCNc2ncnc4c2C(=CN3)C(=O)N4)CC1 (mixture of isomers) [Compound 133] | 7.21 | 5.81 | 6.95 | 6.8 | 6.00 | 6.16 | 5.17 | 5.65 | 5.02 | – | – | – | – | – | – | – | – | – | – | – |
| O=C1CCCOc2cccc(c2)NC=C2C(=O)Nc3ncnc(c32)NCCCN1 (mixture of isomers) [Compound 142] | 7.3 | 6.93 | 7.7 | 6.83 | <5 | – | 6.14 | 5.19 | 5.75 | <5 | – | – | – | – | – | – | – | – | – | – |
| COc1ccc2cc1OCCCC(=O)NCCCNc1ncnc3c1C(=CN2)C(=O)N3 (mixture of isomers) [Compound 146] | 7.34 | 7.24 | 7.56 | 7.21 | 5.83 | 6.15 | 6.41 | 5.80 | 6.22 | – | – | – | – | – | – | – | – | – | – | – |
| O=C1Nc2ncnc3c2/C1=C/Nc1ccc(Cl)c(c1)OCCCCCC(=O)N1CCN3CC1 [Compound 25] | – | – | – | – | – | – | – | – | – | – | > 10000 | > 10000 | > 10000 | > 10000 | > 10000 | – | – | – | – | – |
| CC(C)N1CCCCCCC(=O)N2CCN(CC2)c2ncnc3c2/C(=C/Nc2ccc(F)c(c2)C1)C(=O)N3 [Compound 29] | – | – | – | – | – | – | – | – | – | – | > 10000 | > 10000 | > 10000 | > 10000 | > 10000 | > 10000 | – | – | – | – |
| CN1CCCNc2ncnc3c2/C(=C/Nc2ccc(Cl)c(c2)OCCCCC1=O)C(=O)N3 [Compound 61] | – | – | – | – | – | – | – | – | – | – | 1780 | > 10000 | > 10000 | – | > 10000 | 8710 | 51.3 | 63.1 | > 10000 | > 10000 |
| CN1CCCNc2ncnc3c2/C(=C/Nc2cccc(c2)OCCCCCCC1=O)C(=O)N3 [Compound 69] | – | – | – | – | – | – | – | – | – | – | 3390 | > 10000 | – | > 10000 | – | > 10000 | 5010 | 1070 | > 10000 | > 10000 |
| C[C@@H]1CN(C)CCCNc2ncnc3c2/C(=C/Nc2cccc(c2)OCC(=O)N1)C(=O)N3 [Compound 99] | – | – | – | – | – | – | – | – | – | – | 417 | > 10000 | > 10000 | > 10000 | > 10000 | > 10000 | > 10000 | 2040 | – | > 10000 |
| CN1CCCNc2ncnc3c2/C(=C/Nc2ccc(NC(=O)NC4CCCCC4)c(c2)OCCCC1=O)C(=O)N3 [Compound 107] | – | – | – | – | – | – | – | – | – | – | 1050 | 72.4 | 2340 | 2040 | 1580 | 170 | 275 | 2000 | – | 275 |
| CN1CCCNc2ncnc3c2/C(=C/Nc2ccc(NC(=O)c4ccccc4)c(c2)OCCCC1=O)C(=O)N3 [Compound 108] | – | – | – | – | – | – | – | – | – | – | 891 | > 10000 | 8320 | > 10000 | > 10000 | > 10000 | 617 | 1550 | – | > 10000 |
| CN1CCCNc2ncnc3c2/C(=C/Nc2ccc(NS(=O)(=O)c4ccccc4)c(c2)OCCCC1=O)C(=O)N3 [Compound 109] | – | – | – | – | – | – | – | – | – | – | 224 | 871 | > 10000 | > 10000 | > 10000 | 603 | 91.2 | 141 | – | > 10000 |
| CN1CCCNc2ncnc3c2/C(=C/Nc2ccc(NCc4ccccc4)c(c2)OCCCC1=O)C(=O)N3 [Compound 110] | – | – | – | – | – | – | – | – | – | – | 407 | 1170 | > 10000 | 8710 | 5010 | 1660 | 537 | 912 | – | 2630 |
| COc1nc2c3c(n1)NC(=O)/C3=C\Nc1ccc(Cl)c(c1)OCCCCC(=O)N(C)CCCN2 [Compound 111] | – | – | – | – | – | – | – | – | – | – | – | 3240 | – | 2690 | 6460 | 3630 | > 10000 | 3090 | – | > 10000 |
| CN1CCN(c2ccc3cc2CN(C)CCCC(=O)N(C)CCCNc2ncnc4c2/C(=C/N3)C(=O)N4)CC1 [Compound 140] | – | – | – | – | – | – | – | – | – | – | 525 | 1230 | – | 501 | 6170 | – | > 10000 | 51.3 | 1550 | 2630 |
| CN1CCCNc2ncnc3c2/C(=C/Nc2ccc(NC(=O)Nc4ccccc4)c(c2)OCCCC1=O)C(=O)N3 [Compound 158] | – | – | – | – | – | – | – | – | – | – | 2750 | 166 | 4370 | 1230 | 1320 | 229 | 331 | 3550 | – | 550 |
| COc1ccc2cc1OCC(=O)NCCN1CCN(CC1)c1ncnc3c1/C(=C/N2)C(=O)N3 [Compound 207] | – | – | – | – | – | – | – | – | – | – | – | > 10000 | > 10000 | > 10000 | > 10000 | > 10000 | 1860 | 4070 | – | > 10000 |
